Data set [1] concerns INS-1 cells. Put plainly: Proliferation of INS-1 cells, [methyl-3H] thymidine incorporation. It is filed as cell-based, rat. Here is the method:
To investigate if FOL-005 and FOL-014 could induce proliferation of β-cells we used INS-1 cells. Rat INS-1 cells were seeded in 96-well plates in RPMI medium with supplement and after 2 hours the medium was changed to RPMI without supplement. During the proliferation experiment the cells were incubated at different test conditions (FOL-005, FOL-014, coated or in solution, 48 h incubation) and during the last 20 hours of culture period the cells were pulsed with 1μ Ci/well of [methyl-3H] thymidine. The cells were then harvested onto glass fiber filters using a FilterMate harvester. The filters were air dried, and the bound radioactivity was measured using a liquid scintillation counter. To study whether FOL-005 influenced β-cell proliferation, INS-1 cells were treated with increasing amounts of soluble FOL-005 (0.06-6 μM) during 48 hours and proliferation was measured with radiolabeled thymidine incorporation into newly synthesized DNA.

Data set [2] relates to INS-1 cells. Briefly: Glucotoxicity-induced apoptosis in INS-1 cells (Annexin V staining, caspase-3 activity). It is filed as cell-based, rat. Conditions: 20 mM glucose, 48 h, vs 20 mM glucose alone. The procedure: Since glucotoxicity in pancreatic β-cells is a well-established process in type 2 diabetes we next investigated the protective effects of FOL-005 on β-cells during glucotoxic conditions. First we confirmed that 20 mM glucose induced cell apoptosis in INS cells after 48 h of exposure. High glucose (20 mM) containing RPMI medium induced more Annexin V positive cells and more caspase-3 activity in INS cells compared to cells incubated with medium containing 5 mM glucose (FIG. 2A-B). […] The rate of apoptosis in INS-1 cells was measured with either Caspase-3 Assay Kit or stained with Annexin V Apoptosis Detection Kit with 7-AAD. Caspase-3 activity was measured with fluorescence at an excitation wavelength of 380 nm and an emission wavelength of 440 nm. Caspase-3 activity was then normalized to protein concentration in each well. Measurements of Annexin V stained cells were performed using a CyAn ADP flow cytometer and analyzed with Summit V4.3 software.

The next data set has as its system INS-1 β-cells. Put plainly: Insulin secretion from INS-1 cells, insulin radioimmunoassay (Examples 4 and 6). It is filed as cell-based, rat. Particulars: peptide 6 μM, 60 min. Here is the method:
To investigate the stimulatory effect of FOL-005 on insulin secretion, INS-1 β-cells were used in the following experiments. Cells were seeded overnight in cRPMI and then washed with PBS before pre-incubation for 60 min at 37° C. in Krebs-Ringer bicarbonate buffer (KRB), pH 7.4, supplemented with 10 mM HEPES, 0.1% bovine serum albumin. After pre-incubation, the buffer was changed and the INS-1 cells were incubated at different test conditions (0 mM, 5 mM or 20 mM glucose) and stimulated with peptide FOL-005 or FOL-015 (SEQ ID NO: 158) or left untreated during 60 min at 37° C. Immediately after incubation, an aliquot of the buffer was removed and frozen for subsequent assay of insulin with an insulin radioimmunoassay kit.
INS-1 β-cells were used to investigate the stimulatory effect of FOL-014 on insulin secretion. Cells were seeded overnight and then washed with PBS before pre-incubation for 60 min at 37° C. in Krebs-Ringer bicarbonate buffer (KRB), pH 7.4, supplemented with 10 mM HEPES, 0.1% bovine serum albumin. After pre-incubation, the buffer was changed and the INS-1 cells were incubated in new KRB buffer supplemented with 10 mM HEPES, 0.1% bovine serum albumin and stimulated with peptide FOL-014 or left untreated during 60 min at 37° C. Immediately after incubation, an aliquot of the buffer was removed and frozen for subsequent assay of insulin.

The next data set has as its system mouse pancreatic islets. Put plainly: Insulin secretion from isolated mouse pancreatic islets (Examples 5 and 7). It is filed as cell-based. Conditions: 60 min. The procedure:
Mouse pancreatic islets were isolated from 8-week old C57BL/6J male mice (Taconic). Mice were sacrificed by an overdose of isoflurane and cervical dislocation. 3 ml of 0.9 U/ml collagenase P was injected into the pancreatic duct to inflate the pancreas. The pancreas was then removed and collagen digested for 19 min at 37° C. The samples were vigorously shaken to disrupt the tissue. The digest was transferred into ice cold Hank's Balanced Salt Solution (HBSS) with Ca^2+ and Mg^2+. The suspension was allowed to sit for 10 min to allow the islet to sink, and the islets were washed in fresh HBSS four times. The islets were then hand-picked and sorted according to size. Islets (n=3 per well in a 96 well plate) were pre-incubated in KRB buffer during 10 min 37° C., pH 7.4, supplemented with 10 mM HEPES, 0.1% bovine serum albumin. After pre-incubation, the buffer was changed and islets were incubated at different test conditions in new KRB buffer with 0.1% bovine serum albumin (non-treated ctrl, FOL-005 peptide, or GLP-1) for 60 min at 37° C. Immediately after incubation, an aliquot of the buffer was removed and frozen for subsequent assay of insulin.
Mouse pancreatic islets were isolated from 8-week old C57BL/6J male mice as described under example 5. The islets were then hand-picked and sorted according to size. Islets (n=5 per well in a 96 well plate) were pre-incubated in 200 μl KRB buffer during 10 min 37° C., pH 7.4, supplemented with 10 mM HEPES, 0.1% bovine serum albumin. Following pre-incubation, the buffer was changed and islets were incubated in different test conditions in new KRB buffer with 0.1% bovine serum albumin (non-treated ctrl, FOL-014 peptide, and GLP-1) for 60 min at 37° C. Immediately after incubation, an aliquot of the buffer was removed and frozen for subsequent assay of insulin.

Data set [3] is described as follows: Distribution of H3 labelled peptide, whole body sectioning. It is filed as in vivo, mouse. Conditions: subcutaneous, C57Bl/6 mice, 1 h and 2 h after injection. Here is the method:
C57Bl/6 mice were injected subcutaneously with H^3 labelled FOL-005 and euthanized at 1 h (FIG. 12A) or 2 h (FIG. 12B) after injection. Following whole body sectioning the distribution of the labelled peptide was visualised. […] Using Pearl Trilogy Small Animal Imaging System, in vivo bio-distribution and tissue localization of two Cy7.5 labelled peptides, FOL-005 (FIG. 12C) and FOL-014 (FIG. 12D) in NMRI nude mice via subcutaneous injection was investigated. […] The dose of each peptide was 10 nmol per mouse. The mice were imaged before injection, at 5 min, 20 min, 50 min, 60 min, 2 hrs, 4 hrs, 6 hrs, 24 hrs and 48 hrs post administration of labelled peptide.

Data set [4] can be described thus: In vivo bio-distribution of Cy7.5 labelled peptides, Pearl Trilogy Small Animal Imaging System. On the set-up: species or system mouse. Conditions: Cy7.5 labelled peptide.
The next data set has as its system isolated mouse islets. Put plainly: Insulin and glucagon secretion from isolated mouse islets at low and high glucose (Example 12). Conditions: 100 nM GLP-1, 1 h. Type of data set: cell-based. Here is the method: Twelve-week-old male C57/bl6 mice were euthanized with isoflurane and cervical dislocation. After clamping the hepatic ducts, 3 ml of 0.9 U/ml collagenase P was injected into the bile duct to inflate the pancreas. The pancreas was then removed and digested for 19 min at 37° C. The samples were vigorously shaken to disrupt the tissue. The digest was quickly transferred into ice cold Hank's Balanced Salts Solution with Ca^2+ and Mg^2+. The suspension was allowed to sit for 8 min to allow the islet to sink, and the islets were washed in the same manner four times. The islets were then handpicked and sorted according to size.
Freshly isolated islets were seeded in groups of 5 in a 96-well plate and preincubated for 1 h at 37° C. in a Krebs-Ringer bicarbonate buffer (pH 7.4). The islets were incubated for 1 h at 37° C. in Krebs-Ringer buffered solution supplemented with 0.6 or 6 μM FOL-014 or 100 nM GLP-1 or left unsupplemented for control. Immediately after incubation, the medium was removed for assays of insulin and glucagon using Mercodia's ELISA kits. The effect of FOL-014 on insulin (FIGS. 8A and B) and glucagon (FIGS. 8C and D) secretion from isolated mouse islets was measured in the presence of low glucose (2.8 mM; FIGS. 8A and C) or high glucose (16.7 mM; FIGS. 8B and D) concentrations.

“Also recorded” adds a separate entry of the source. No end group written: not given here.

With “VDTYDGDISVVYGLR ((1)..(15) peptide, FOL-005)”, the “INS-1 cell proliferation (radiolabeled thymidine incorporation)” value in the data set on INS-1 cells [1] (soluble peptide 0.06-6 μM, 48 hours) was “stimulated INS-1 cell proliferation”; in the data set with INS-1 cells [1] (wells coated with peptide and blocked with BSA, vs control coated wells), “stimulated proliferation compared to control (ctrl) coated wells”. Also, in the data set with INS-1 cells [2], the “cell apoptosis, Annexin V staining” value was “decreased cell apoptosis”. Also, the “cell apoptosis, caspase-3 activity” value with INS-1 cells [2] is “decreased cell apoptosis”. Further, the insulin secretion entry was “responded with insulin secretion” with INS-1 β-cells (5 mM glucose); “responded with more insulin secretion compared to FOL-005 stimulated cells incubated with 5 mM glucose” with INS-1 β-cells (20 mM glucose); “secreted more insulin compared to unstimulated control cells” with INS-1 β-cells (conditions without glucose); “secreted more insulin compared to unstimulated control islets” with mouse pancreatic islets (Example 5, 3 islets per well, peptide 6 μM). In data set [3], the “tissue distribution of radioactivity” value is “Strong binding was evident in pancreas and at the site of injection; also recorded: also visible in liver, kidney, salivary glands”. Also, the “bio-distribution and tissue localization” value was “same distribution pattern” in data set [4] (i.v. administration (not shown)) and “High accumulation of the peptide was evident in the pancreatic tissue area” in data set [4] (subcutaneous, 10 nmol per mouse, NMRI nude mice, 5 min to 48 hrs).

As to “glucagon-like peptide-1 (HAEGTFTSDVSSYLEGQAAKEFIAWLVKGR; ends and bridges not checked; UniProt P01275 98-127, looked up) [GLP-1, metabolic hormone that stimulates insulin secretion; native GLP-1 used as comparator]”, the insulin secretion result with mouse pancreatic islets (Example 5, 3 islets per well, GLP-1 100 nM) is given as “secreted more insulin compared to unstimulated control islets”; with mouse pancreatic islets (Example 7, 5 islets per well, GLP-1 100 nM), “did not affect insulin secretion”; with isolated mouse islets (high glucose (16.7 mM)), “significantly increased insulin secretion”; in the data set with isolated mouse islets (low glucose (2.8 mM)), “enhanced insulin secretion also in low glucose samples”. The glucagon secretion entry is listed as “efficiently reduced glucagon secretion” in the data set with isolated mouse islets (high glucose (16.7 mM)) and “failed to inhibit glucagon secretion in low glucose conditions” with isolated mouse islets (low glucose (2.8 mM)).
